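GI50 = concentration required for 50% inhibition of growth. At the TGI there is no net growth.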
Key:
Experiment in all cases: NCI anticancer screen, dose series, 384-well format
MDA-MB-468 breast = system: MDA-MB-468 breast
MDA-MB-435 melanoma = system: MDA-MB-435 melanoma
UACC-62 melanoma = system: UACC-62 melanoma
SNB-75 CNS = system: SNB-75 CNS
MCF7 breast = system: MCF7 breast
UO-31 renal = system: UO-31 renal
NCI-H322M lung = system: NCI-H322M lung
HCT-15 colon = system: HCT-15 colon
A498 renal = system: A498 renal
RXF 393 renal = system: RXF 393 renal
NCI-H226 lung = system: NCI-H226 lung
NCI-H460 NSCLC = system: NCI-H460 NSCLC
MALME-3M melanoma = system: MALME-3M melanoma
TK-10 renal = system: TK-10 renal
IGROV1 ovarian = system: IGROV1 ovarian
NCI-H23 lung = system: NCI-H23 lung
KM12 colon = system: KM12 colon
SF-295 CNS = system: SF-295 CNS
HCC-2998 colon = system: HCC-2998 colon
NCI-H522 lung = system: NCI-H522 lung
T-47D breast = system: T-47D breast
SF-539 CNS = system: SF-539 CNS
OVCAR-5 ovarian = system: OVCAR-5 ovarian
HL-60(TB) leukemia = system: HL-60(TB) leukemia
M14 melanoma = system: M14 melanoma
SR leukemia = system: SR leukemia
SF-268 CNS = system: SF-268 CNS
OVCAR-4 ovarian = system: OVCAR-4 ovarian
LOX IMVI melanoma = system: LOX IMVI melanoma
EKVX NSCLC = system: EKVX NSCLC
SK-OV-3 ovarian = system: SK-OV-3 ovarian
HS 578T breast = system: HS 578T breast
PC-3 prostate = system: PC-3 prostate
CAKI-1 renal = system: CAKI-1 renal
SNB-19 CNS = system: SNB-19 CNS
HOP-92 NSCLC = system: HOP-92 NSCLC
MDA-MB-231 breast = system: MDA-MB-231 breast
HT29 colon = system: HT29 colon
SK-MEL-5 melanoma = system: SK-MEL-5 melanoma
OVCAR-3 ovarian = system: OVCAR-3 ovarian
NCI/ADR-RES ovarian = system: NCI/ADR-RES ovarian
MOLT-4 leukemia = system: MOLT-4 leukemia
K-562 leukemia = system: K-562 leukemia
A549 NSCLC = system: A549 NSCLC
HOP-62 NSCLC = system: HOP-62 NSCLC
CCRF-CEM leukemia = system: CCRF-CEM leukemia
OVCAR-8 ovarian = system: OVCAR-8 ovarian
RPMI-8226 leukemia = system: RPMI-8226 leukemia
DU-145 prostate = system: DU-145 prostate
UACC-257 melanoma = system: UACC-257 melanoma
SW-620 colon = system: SW-620 colon
COLO 205 colon = system: COLO 205 colon
BT-549 breast = system: BT-549 breast
786-0 renal = system: 786-0 renal
ACHN renal = system: ACHN renal
SK-MEL-28 melanoma = system: SK-MEL-28 melanoma

Structure (SMILES): Cn1c(=O)n(-c2ccc(C(C)(C)C#N)cc2)c2c3cc(-c4cnc5ccccc5c4)ccc3ncc21
- GI50 (MDA-MB-468 breast): < 10 nM
- TGI (MDA-MB-468 breast): 30.4 nM
- GI50 (MDA-MB-435 melanoma): 17.6 nM
- TGI (MDA-MB-435 melanoma): 492 nM
- GI50 (UACC-62 melanoma): < 10 nM
- TGI (UACC-62 melanoma): 101 nM
- GI50 (SNB-75 CNS): < 10 nM
- TGI (SNB-75 CNS): 80.9 nM
- GI50 (MCF7 breast): < 10 nM
- TGI (MCF7 breast): 185 nM
- GI50 (UO-31 renal): 19.6 nM
- TGI (UO-31 renal): > 100 µM
- GI50 (NCI-H322M lung): 12.1 nM
- TGI (NCI-H322M lung): 2560 nM
- GI50 (HCT-15 colon): < 10 nM
- TGI (HCT-15 colon): > 100 µM
- GI50 (A498 renal): < 10 nM
- TGI (A498 renal): 16.8 nM
- GI50 (RXF 393 renal): < 10 nM
- TGI (RXF 393 renal): > 100 µM
- GI50 (NCI-H226 lung): < 10 nM
- TGI (NCI-H226 lung): 62.3 nM
- GI50 (NCI-H460 NSCLC): < 10 nM
- TGI (NCI-H460 NSCLC): 532 nM
- GI50 (MALME-3M melanoma): < 10 nM
- TGI (MALME-3M melanoma): 23 nM
- GI50 (TK-10 renal): 23.9 nM
- TGI (TK-10 renal): 126 nM
- GI50 (IGROV1 ovarian): < 10 nM
- TGI (IGROV1 ovarian): 28.6 nM
- GI50 (NCI-H23 lung): 34.5 nM
- TGI (NCI-H23 lung): 723 nM
- GI50 (KM12 colon): 13.5 nM
- TGI (KM12 colon): 1290 nM
- GI50 (SF-295 CNS): < 10 nM
- TGI (SF-295 CNS): 31.5 nM
- GI50 (HCC-2998 colon): < 10 nM
- TGI (HCC-2998 colon): 480 nM
- GI50 (NCI-H522 lung): 10.4 nM
- TGI (NCI-H522 lung): 237 nM
- GI50 (T-47D breast): < 10 nM
- TGI (T-47D breast): 19.7 nM
- GI50 (SF-539 CNS): < 10 nM
- TGI (SF-539 CNS): 707 nM
- GI50 (OVCAR-5 ovarian): 13.3 nM
- TGI (OVCAR-5 ovarian): 298 nM
- GI50 (HL-60(TB) leukemia): 104 nM
- TGI (HL-60(TB) leukemia): 1110 nM
- GI50 (M14 melanoma): 13.6 nM
- TGI (M14 melanoma): 599 nM
- GI50 (SR leukemia): < 10 nM
- TGI (SR leukemia): 17.2 nM
- GI50 (SF-268 CNS): 19.4 nM
- TGI (SF-268 CNS): 3.36 µM
- GI50 (OVCAR-4 ovarian): < 10 nM
- TGI (OVCAR-4 ovarian): 27.2 nM
- GI50 (LOX IMVI melanoma): < 10 nM
- TGI (LOX IMVI melanoma): 69.8 nM
- GI50 (EKVX NSCLC): < 10 nM
- TGI (EKVX NSCLC): 85.1 nM
- GI50 (SK-OV-3 ovarian): < 10 nM
- TGI (SK-OV-3 ovarian): 60.2 nM
- GI50 (HS 578T breast): < 10 nM
- TGI (HS 578T breast): 19.8 nM
- GI50 (PC-3 prostate): < 10 nM
- TGI (PC-3 prostate): 2110 nM
- GI50 (CAKI-1 renal): 12.7 nM
- TGI (CAKI-1 renal): > 100 µM
- GI50 (SNB-19 CNS): 40.8 nM
- TGI (SNB-19 CNS): > 100 µM
- GI50 (HOP-92 NSCLC): < 10 nM
- TGI (HOP-92 NSCLC): 64.2 nM
- GI50 (MDA-MB-231 breast): < 10 nM
- TGI (MDA-MB-231 breast): > 100 µM
- GI50 (HT29 colon): 29.5 nM
- TGI (HT29 colon): > 100 µM
- GI50 (SK-MEL-5 melanoma): 12.7 nM
- TGI (SK-MEL-5 melanoma): 41.1 nM
- GI50 (OVCAR-3 ovarian): 12.3 nM
- TGI (OVCAR-3 ovarian): 1700 nM
- GI50 (NCI/ADR-RES ovarian): 29.7 nM
- TGI (NCI/ADR-RES ovarian): 8.07 µM
- GI50 (MOLT-4 leukemia): < 10 nM
- TGI (MOLT-4 leukemia): 86 nM
- GI50 (K-562 leukemia): 13.9 nM
- TGI (K-562 leukemia): 12.8 µM
- GI50 (A549 NSCLC): < 10 nM
- TGI (A549 NSCLC): 1330 nM
- GI50 (HOP-62 NSCLC): < 10 nM
- TGI (HOP-62 NSCLC): 191 nM
- GI50 (CCRF-CEM leukemia): < 10 nM
- TGI (CCRF-CEM leukemia): 103 nM
- GI50 (OVCAR-8 ovarian): < 10 nM
- TGI (OVCAR-8 ovarian): > 100 µM
- GI50 (RPMI-8226 leukemia): < 10 nM
- GI50 (DU-145 prostate): < 10 nM
- TGI (DU-145 prostate): > 100 µM
- GI50 (UACC-257 melanoma): 21.4 nM
- TGI (UACC-257 melanoma): 93.7 nM
- GI50 (SW-620 colon): 28.2 nM
- TGI (SW-620 colon): > 100 µM
- GI50 (COLO 205 colon): 21.5 nM
- TGI (COLO 205 colon): 262 nM
- GI50 (BT-549 breast): < 10 nM
- TGI (BT-549 breast): 62.8 nM
- GI50 ([…]-0 renal): < 10 nM
- TGI (786-0 renal): 1190 nM
- GI50 (ACHN renal): < 10 nM
- TGI (ACHN renal): > 100 µM
- GI50 (SK-MEL-28 melanoma): 13.5 nM
- TGI (SK-MEL-28 melanoma): 95 nM
